Where two headings read alike, the source gives them in different places. Where a SMILES comes first, the peptide text is derived from it. [ ]: non-standard residue; d: D form. Cha = N[C@@H](CC1CCCCC1)C(=O)O; Cit = NC(=O)NCCC[C@H](N)C(=O)O; Nle = CCCC[C@H](N)C(=O)O; Aib = CC(C)(N)C(=O)O A value given as a limit tells only on which side of the number the result lay.

A short description of this series: Solubility by ultracentrifugation (GLP-1 variants). Format: physicochemical. The note with it: for Ultracentrifugation: GLP1 variants, Figure 3c; for Ultracentrifugation / First Run / Second Run: in mg/mL; for First Run / Second Run: source data Supplementary Fig. 4, GLP-1 variants, 2 stands where Table 3 prints S; for solubility: 10 mM citrate 10 mM phosphate buffer, pH 7, GLP-1 variants, 2 mg/mL in 10 mM citrate 10 mM phosphate pH 7, 30 min 500,000 g 4 °C. As for the experimental part: Relative solubility was measured using a recently developed PEG precipitation assay. For all PYY variants the standard assay worked well, and no changes had to be implemented (Fig. 2a). […] Moreover, to ensure that the results stemming from the AMS assay are consistent and reliable, we performed the 18 A experiments twice independently on different days. The results confirmed that they are indeed replicable, and we were therefore confident to use them for the validation of our approach (Supplementary Fig. 3). […] Even at final concentrations of 0.33 mg/mL (instead of 1 mg/mL) most variants remained insoluble. We used ultracentrifugation to determine the relative solubilities of the GLP-1 variants (Table 3). To confirm the reliability of this method we replicated the results on a different day with the same stock solutions (Supplementary Fig. 4).
Aliquots of 1 mg were prepared from the purified and lyophilised stocks. […] Briefly, a precipitant is titrated in increasing concentration to a fixed concentration of protein to induce precipitation of the protein. The samples are incubated for 48 h at 4° after mixing. The samples are centrifuged and the remaining protein concentration is measured in the supernatant using a plate reader. PYY and 18 A variants were dissolved in 10 mM citrate 10 mM phosphate buffer at pH 7 for a final concentration of 3 mg/mL. The assay was run with 50% 6000 PEG for PYY and with 3.8 M AMS for 18 A. To improve throughput, a multichannel robot was employed to measure several peptides at once with the workflow being kept the same as described previously. […] 120 µL of each sample were centrifuged using an OptimaTLX Ultracentrifuge and spinning for 30 min at 500,000 g at 4 °C. The supernatant was removed, and the peptide concentration was measured using a NanoDrop.

[1] abbreviates: run 1, read-out: Run 1 solubility (peptide concentration in supernatant).
Where [2] appears, read: run 2, read-out: Run 2 solubility (peptide concentration in supernatant).

Take `CC[C@H](C)[C@H](NC(=O)[C@H](Cc1ccccc1)NC(=O)[C@H](CCC(=O)O)NC(=O)[C@H](CCCCN)NC(=O)[C@H](C)NC(=O)[C@H](C)NC(=O)[C@H](CCC(N)=O)NC(=O)CNC(=O)[C@H](CCC(=O)O)NC(=O)[C@H](CC(C)C)NC(=O)[C@H](Cc1ccc(O)cc1)NC(=O)[C@H](CO)NC(=O)[C@H](CO)NC(=O)[C@@H](NC(=O)[C@H](CC(=O)O)NC(=O)[C@H](CO)NC(=O)[C@@H](NC(=O)[C@H](Cc1ccccc1)NC(=O)[C@@H](NC(=O)CNC(=O)[C@H](CCC(=O)O)NC(=O)[C@H](C)NC(=O)[C@@H](N)Cc1c[nH]cn1)[C@@H](C)O)[C@@H](C)O)C(C)C)C(=O)N[C@@H](C)C(=O)N[C@@H](Cc1c[nH]c2ccccc12)C(=O)N[C@@H](CC(C)C)C(=O)N[C@H](C(=O)N[C@@H](CCCCN)C(=O)NCC(=O)N[C@@H](CCCNC(=N)N)C(N)=O)C(C)C` [Compound 1, reference compound]: the Ultracentrifugation amounted to 0.9813, the “First Run” value was 0.5803 and the “Second Run” value came to 1.382.

`CC[C@H](C)[C@H](NC(=O)[C@H](Cc1ccccc1)NC(=O)[C@H](CCC(=O)O)NC(=O)[C@H](CCCCN)NC(=O)[C@H](C)NC(=O)[C@H](CC1CCCCC1)NC(=O)[C@H](CCC(N)=O)NC(=O)CNC(=O)[C@H](CCC(=O)O)NC(=O)[C@H](CC(C)C)NC(=O)[C@H](Cc1ccc(O)cc1)NC(=O)[C@H](CO)NC(=O)[C@H](CO)NC(=O)[C@@H](NC(=O)[C@H](CC(=O)O)NC(=O)[C@H](CO)NC(=O)[C@@H](NC(=O)[C@H](Cc1ccccc1)NC(=O)[C@@H](NC(=O)CNC(=O)[C@H](CCC(=O)O)NC(=O)[C@H](C)NC(=O)[C@@H](N)Cc1c[nH]cn1)[C@@H](C)O)[C@@H](C)O)C(C)C)C(=O)N[C@@H](C)C(=O)N[C@@H](Cc1c[nH]c2ccccc12)C(=O)N[C@@H](CC(C)C)C(=O)N[C@H](C(=O)N[C@@H](CCCCN)C(=O)NCC(=O)N[C@@H](CCCNC(=N)N)C(N)=O)C(C)C` [Compound 2] (H-HAEGTFTSDVSSYLEGQ[Cha]AKEFIAWLVKGR-NH2; N-terminus assumed): the Ultracentrifugation was determined as 0, the “First Run” value is reported as 0 and the “Second Run” value turned out to be 0.

With `CCCC[C@H](NC(=O)[C@H](CCC(N)=O)NC(=O)CNC(=O)[C@H](CCC(=O)O)NC(=O)[C@H](CC(C)C)NC(=O)[C@H](Cc1ccc(O)cc1)NC(=O)[C@H](CO)NC(=O)[C@H](CO)NC(=O)[C@@H](NC(=O)[C@H](CC(=O)O)NC(=O)[C@H](CO)NC(=O)[C@@H](NC(=O)[C@H](Cc1ccccc1)NC(=O)[C@@H](NC(=O)CNC(=O)[C@H](CCC(=O)O)NC(=O)[C@H](C)NC(=O)[C@@H](N)Cc1c[nH]cn1)[C@@H](C)O)[C@@H](C)O)C(C)C)C(=O)N[C@@H](C)C(=O)N[C@@H](CCCCN)C(=O)N[C@@H](CCC(=O)O)C(=O)N[C@@H](Cc1ccccc1)C(=O)N[C@H](C(=O)N[C@@H](C)C(=O)N[C@@H](Cc1c[nH]c2ccccc12)C(=O)N[C@@H](CC(C)C)C(=O)N[C@H](C(=O)N[C@@H](CCCCN)C(=O)NCC(=O)N[C@@H](CCCNC(=N)N)C(N)=O)C(C)C)[C@@H](C)CC` [Compound 3] (H-HAEGTFTSDVSSYLEGQ[Nle]AKEFIAWLVKGR-NH2; N-terminus assumed), the Ultracentrifugation came to 0.1242, the “First Run” value stood at 0.086 and the “Second Run” value is on record as 0.1624. Besides, under setting [1], the solubility came to 90 µg/mL. Besides, under setting [2], the solubility was 160 µg/mL.

With `CC[C@H](C)[C@H](NC(=O)[C@H](Cc1ccccc1)NC(=O)[C@H](CCC(=O)O)NC(=O)[C@H](CCCCN)NC(=O)[C@H](C)NC(=O)[C@H](CCCCNC(C)=O)NC(=O)[C@H](CCC(N)=O)NC(=O)CNC(=O)[C@H](CCC(=O)O)NC(=O)[C@H](CC(C)C)NC(=O)[C@H](Cc1ccc(O)cc1)NC(=O)[C@H](CO)NC(=O)[C@H](CO)NC(=O)[C@@H](NC(=O)[C@H](CC(=O)O)NC(=O)[C@H](CO)NC(=O)[C@@H](NC(=O)[C@H](Cc1ccccc1)NC(=O)[C@@H](NC(=O)CNC(=O)[C@H](CCC(=O)O)NC(=O)[C@H](C)NC(=O)[C@@H](N)Cc1c[nH]cn1)[C@@H](C)O)[C@@H](C)O)C(C)C)C(=O)N[C@@H](C)C(=O)N[C@@H](Cc1c[nH]c2ccccc12)C(=O)N[C@@H](CC(C)C)C(=O)N[C@H](C(=O)N[C@@H](CCCCN)C(=O)NCC(=O)N[C@@H](CCCNC(=N)N)C(N)=O)C(C)C` [Compound 4] (H-HAEGTFTSDVSSYLEGQK(Ac)AKEFIAWLVKGR-NH2; N-terminus assumed), the Ultracentrifugation turned out to be 2, the “First Run” value is listed as 2 and the “Second Run” value came out at 2. The solubility under setting [1] is more than 2000 µg/mL. The solubility under setting [2] is more than 2000 µg/mL.

`CC[C@H](C)[C@H](NC(=O)[C@H](Cc1ccccc1)NC(=O)[C@H](CCC(=O)O)NC(=O)[C@H](CCCCN)NC(=O)[C@H](C)NC(=O)C(C)(C)NC(=O)[C@H](CCC(N)=O)NC(=O)CNC(=O)[C@H](CCC(=O)O)NC(=O)[C@H](CC(C)C)NC(=O)[C@H](Cc1ccc(O)cc1)NC(=O)[C@H](CO)NC(=O)[C@H](CO)NC(=O)[C@@H](NC(=O)[C@H](CC(=O)O)NC(=O)[C@H](CO)NC(=O)[C@@H](NC(=O)[C@H](Cc1ccccc1)NC(=O)[C@@H](NC(=O)CNC(=O)[C@H](CCC(=O)O)NC(=O)[C@H](C)NC(=O)[C@@H](N)Cc1c[nH]cn1)[C@@H](C)O)[C@@H](C)O)C(C)C)C(=O)N[C@@H](C)C(=O)N[C@@H](Cc1c[nH]c2ccccc12)C(=O)N[C@@H](CC(C)C)C(=O)N[C@H](C(=O)N[C@@H](CCCCN)C(=O)NCC(=O)N[C@@H](CCCNC(=N)N)C(N)=O)C(C)C` [Compound 5] (H-HAEGTFTSDVSSYLEGQ[Aib]AKEFIAWLVKGR-NH2; N-terminus assumed): the Ultracentrifugation is reported as 0.08054, the “First Run” value came out at 0.09475 and the “Second Run” value came to 0.06633. In addition, under setting [1], the solubility was determined as 90 µg/mL. For the same compound, the solubility under setting [2] turned out to be 70 µg/mL.

`CC[C@H](C)[C@H](NC(=O)[C@H](Cc1ccccc1)NC(=O)[C@H](CCC(=O)O)NC(=O)[C@H](CCCCN)NC(=O)[C@H](C)NC(=O)[C@H](CCCNC(N)=O)NC(=O)[C@H](CCC(N)=O)NC(=O)CNC(=O)[C@H](CCC(=O)O)NC(=O)[C@H](CC(C)C)NC(=O)[C@H](Cc1ccc(O)cc1)NC(=O)[C@H](CO)NC(=O)[C@H](CO)NC(=O)[C@@H](NC(=O)[C@H](CC(=O)O)NC(=O)[C@H](CO)NC(=O)[C@@H](NC(=O)[C@H](Cc1ccccc1)NC(=O)[C@@H](NC(=O)CNC(=O)[C@H](CCC(=O)O)NC(=O)[C@H](C)NC(=O)[C@@H](N)Cc1c[nH]cn1)[C@@H](C)O)[C@@H](C)O)C(C)C)C(=O)N[C@@H](C)C(=O)N[C@@H](Cc1c[nH]c2ccccc12)C(=O)N[C@@H](CC(C)C)C(=O)N[C@H](C(=O)N[C@@H](CCCCN)C(=O)NCC(=O)N[C@@H](CCCNC(=N)N)C(N)=O)C(C)C` [Compound 6] (H-HAEGTFTSDVSSYLEGQ[Cit]AKEFIAWLVKGR-NH2; N-terminus assumed): the Ultracentrifugation is 2, the “First Run” value is recorded as 2 and the “Second Run” value came out at 2. The solubility under setting [1] was more than 2000 µg/mL. Further, under setting [2], the solubility was more than 2000 µg/mL.

Consider `CC[C@H](C)[C@H](NC(=O)[C@H](Cc1ccccc1)NC(=O)[C@H](CCC(=O)O)NC(=O)[C@H](CCCCN)NC(=O)[C@H](C)NC(=O)[C@H](CC1CCCCC1)NC(=O)[C@H](CCC(N)=O)NC(=O)CNC(=O)[C@H](CCC(=O)O)NC(=O)[C@H](CC(C)C)NC(=O)[C@H](Cc1ccc(O)cc1)NC(=O)[C@H](CO)NC(=O)[C@H](CO)NC(=O)[C@@H](NC(=O)[C@H](CC(=O)O)NC(=O)[C@H](CO)NC(=O)[C@@H](NC(=O)[C@H](Cc1ccccc1)NC(=O)[C@@H](NC(=O)CNC(=O)[C@H](CCC(=O)O)NC(=O)[C@H](C)NC(=O)[C@@H](N)Cc1c[nH]cn1)[C@@H](C)O)[C@@H](C)O)C(C)C)C(=O)N[C@@H](C)C(=O)N[C@@H](Cc1c[nH]c2ccccc12)C(=O)N[C@@H](CC(C)C)C(=O)N[C@H](C(=O)N[C@@H](CCCCN)C(=O)NCC(=O)N[C@@H](CCCNC(N)=O)C(N)=O)C(C)C` [Compound 7] (H-HAEGTFTSDVSSYLEGQ[Cha]AKEFIAWLVKG[Cit]-NH2; N-terminus assumed), for which the Ultracentrifugation stood at 0.8319, the “First Run” value was determined as 0.8416 and the “Second Run” value was 0.8222. Also, under setting [1], the solubility amounted to 840 µg/mL. The solubility under setting [2] is 820 µg/mL.

Values taken from article PMC10656490, “Sequence-based prediction of the intrinsic solubility of peptides containing non-natural amino acids” (Nature Communications, 2023).
